Experimental data: patent US10765114B2, “4-amino-6-(pyridyl and 2-substitutedphenyl)-picolinates and 6-amino-2-(pyridyl and 2-substitutedphenyl)-pyrimidine-4-carboxylates and their use as herbicides” (Dow AgroSciences LLC, priority 2013, dated 2020)

Tested on: Key Broadleaf Weed and Crop Species
Experiment: Post-Emergent Test II (Table 5)
Format: in vivo
Details: Abutilon theophrasti, post-emergence, 336 h, ABUTH: velvetleaf (Abutilon theophrasti), application rate 70 (kg ai/ha; footnote: g ai/ha), read-out: Visual Growth Reduction (%) 14 Days After Application ABUTH
In short: (§1)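 Visual injury ratings (0 = no injury, 100 = complete kill) taken 14 days after treatment, relative to untreated controls. Compounds, in an acetone/DMSO aqueous carrier with crop oil and surfactant, were applied by track sprayer at 187 L/ha, in a twofold dilution series from the top rate, to plants at the first to second true-leaf stage.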

SMILES | pest or weed control at 70 g/ha [%]
COC(=O)c1nc(-c2ccc(Cl)nc2OC)cc(N)c1Cl [Compound 48] | 85 to 94

Same assay, conditions: Abutilon theophrasti, post-emergence, 336 h, ABUTH: velvetleaf (Abutilon theophrasti), application rate 140 (kg ai/ha; footnote: g ai/ha), read-out: Visual Growth Reduction (%) 14 Days After Application ABUTH

SMILES | pest or weed control at 140 g/ha [%]
COC(=O)c1nc(-c2ccc(Cl)nc2OC)cc(N)c1Cl [Compound 48] | 85 to 94

Same assay, conditions: Amaranthus retroflexus, post-emergence, 336 h, AMARE: redroot pigweed (Amaranthus retroflexus), application rate 70 (kg ai/ha; footnote: g ai/ha), read-out: Visual Growth Reduction (%) 14 Days After Application AMARE

SMILES | pest or weed control at 70 g/ha [%]
COC(=O)c1nc(-c2ccc(Cl)nc2OC)cc(N)c1Cl [Compound 48] | 95 to 100

Same assay, conditions: Amaranthus retroflexus, post-emergence, 336 h, AMARE: redroot pigweed (Amaranthus retroflexus), application rate 140 (kg ai/ha; footnote: g ai/ha), read-out: Visual Growth Reduction (%) 14 Days After Application AMARE

SMILES | pest or weed control at 140 g/ha [%]
COC(=O)c1nc(-c2ccc(Cl)nc2OC)cc(N)c1Cl [Compound 48] | 95 to 100

Same assay, conditions: Brassica napus, post-emergence, 336 h, BRSSS: oilseed rape, canola (Brassica napus), application rate 70 (kg ai/ha; footnote: g ai/ha), read-out: Visual Growth Reduction (%) 14 Days After Application BRSSS

SMILES | pest or weed control at 70 g/ha [%]
COC(=O)c1nc(-c2ccc(Cl)nc2OC)cc(N)c1Cl [Compound 48] | 0 to 29

Same assay, conditions: Brassica napus, post-emergence, 336 h, BRSSS: oilseed rape, canola (Brassica napus), application rate 140 (kg ai/ha; footnote: g ai/ha), read-out: Visual Growth Reduction (%) 14 Days After Application BRSSS

SMILES | pest or weed control at 140 g/ha [%]
COC(=O)c1nc(-c2ccc(Cl)nc2OC)cc(N)c1Cl [Compound 48] | 45 to 59

Same assay, conditions: Chenopodium album, post-emergence, 336 h, CHEAL: lambsquarters (Chenopodium album), application rate 70 (kg ai/ha; footnote: g ai/ha), read-out: Visual Growth Reduction (%) 14 Days After Application CHEAL

SMILES | pest or weed control at 70 g/ha [%]
COC(=O)c1nc(-c2ccc(Cl)nc2OC)cc(N)c1Cl [Compound 48] | 95 to 100

Same assay, conditions: Chenopodium album, post-emergence, 336 h, CHEAL: lambsquarters (Chenopodium album), application rate 140 (kg ai/ha; footnote: g ai/ha), read-out: Visual Growth Reduction (%) 14 Days After Application CHEAL

SMILES | pest or weed control at 140 g/ha [%]
COC(=O)c1nc(-c2ccc(Cl)nc2OC)cc(N)c1Cl [Compound 48] | 95 to 100

Same assay, conditions: Euphorbia heterophylla, post-emergence, 336 h, EPHHL: wild poinsettia (Euphorbia heterophylla), application rate 70 (kg ai/ha; footnote: g ai/ha), read-out: Visual Growth Reduction (%) 14 Days After Application EPHHL

SMILES | pest or weed control at 70 g/ha [%]
COC(=O)c1nc(-c2ccc(Cl)nc2OC)cc(N)c1Cl [Compound 48] | 0 to 29

Same assay, conditions: Euphorbia heterophylla, post-emergence, 336 h, EPHHL: wild poinsettia (Euphorbia heterophylla), application rate 140 (kg ai/ha; footnote: g ai/ha), read-out: Visual Growth Reduction (%) 14 Days After Application EPHHL

SMILES | pest or weed control at 140 g/ha [%]
COC(=O)c1nc(-c2ccc(Cl)nc2OC)cc(N)c1Cl [Compound 48] | 0 to 29

Same assay, conditions: Helianthus annuus, post-emergence, 336 h, HELAN: sunflower (Helianthus annuus), application rate 70 (kg ai/ha; footnote: g ai/ha), read-out: Visual Growth Reduction (%) 14 Days After Application HELAN

SMILES | pest or weed control at 70 g/ha [%]
COC(=O)c1nc(-c2ccc(Cl)nc2OC)cc(N)c1Cl [Compound 48] | 85 to 94

Same assay, conditions: Helianthus annuus, post-emergence, 336 h, HELAN: sunflower (Helianthus annuus), application rate 140 (kg ai/ha; footnote: g ai/ha), read-out: Visual Growth Reduction (%) 14 Days After Application HELAN

SMILES | pest or weed control at 140 g/ha [%]
COC(=O)c1nc(-c2ccc(Cl)nc2OC)cc(N)c1Cl [Compound 48] | 85 to 94

Same assay, conditions: Viola tricolor, post-emergence, 336 h, VIOTR: wild pansy (Viola tricolor), application rate 70 (kg ai/ha; footnote: g ai/ha), read-out: Visual Growth Reduction (%) 14 Days After Application VIOTR

SMILES | pest or weed control at 70 g/ha [%]
COC(=O)c1nc(-c2ccc(Cl)nc2OC)cc(N)c1Cl [Compound 48] | 45 to 59

Same assay, conditions: Viola tricolor, post-emergence, 336 h, VIOTR: wild pansy (Viola tricolor), application rate 140 (kg ai/ha; footnote: g ai/ha), read-out: Visual Growth Reduction (%) 14 Days After Application VIOTR

SMILES | pest or weed control at 140 g/ha [%]
COC(=O)c1nc(-c2ccc(Cl)nc2OC)cc(N)c1Cl [Compound 48] | 60 to 74

Tested on: Key Grass and Sedge Weeds as well as Grass Crops
Experiment: Post-Emergent Test II (Table 6)
Format: in vivo
Details: post-emergence, 336 h, CYPSS, 70 g ai/ha, 14 days after application, read-out: Visual Growth Reduction (%) 14 Days After Application CYPSS
In short: as §1

SMILES | pest or weed control at 70 g/ha [%]
COC(=O)c1nc(-c2ccc(Cl)nc2OC)cc(N)c1Cl [Compound 48] | 0 to 29

Same assay, conditions: post-emergence, 336 h, CYPSS, 140 g ai/ha, 14 days after application, read-out: Visual Growth Reduction (%) 14 Days After Application CYPSS

SMILES | pest or weed control at 140 g/ha [%]
COC(=O)c1nc(-c2ccc(Cl)nc2OC)cc(N)c1Cl [Compound 48] | 0 to 29

Same assay, conditions: post-emergence, 336 h, DIGSA: crabgrass (Digitaria sanguinalis), 70 g ai/ha, 14 days after application, read-out: Visual Growth Reduction (%) 14 Days After Application DIGSA

SMILES | pest or weed control at 70 g/ha [%]
COC(=O)c1nc(-c2ccc(Cl)nc2OC)cc(N)c1Cl [Compound 48] | 0 to 29

Same assay, conditions: post-emergence, 336 h, DIGSA: crabgrass (Digitaria sanguinalis), 140 g ai/ha, 14 days after application, read-out: Visual Growth Reduction (%) 14 Days After Application DIGSA

SMILES | pest or weed control at 140 g/ha [%]
COC(=O)c1nc(-c2ccc(Cl)nc2OC)cc(N)c1Cl [Compound 48] | 0 to 29

Same assay, conditions: post-emergence, 336 h, ECHSS, 70 g ai/ha, 14 days after application, read-out: Visual Growth Reduction (%) 14 Days After Application ECHSS

SMILES | pest or weed control at 70 g/ha [%]
COC(=O)c1nc(-c2ccc(Cl)nc2OC)cc(N)c1Cl [Compound 48] | 0 to 29

Same assay, conditions: post-emergence, 336 h, ECHSS, 140 g ai/ha, 14 days after application, read-out: Visual Growth Reduction (%) 14 Days After Application ECHSS

SMILES | pest or weed control at 140 g/ha [%]
COC(=O)c1nc(-c2ccc(Cl)nc2OC)cc(N)c1Cl [Compound 48] | 0 to 29

Same assay, conditions: post-emergence, 336 h, ORYSS (crop), 70 g ai/ha, 14 days after application, read-out: Visual Growth Reduction (%) 14 Days After Application ORYSS

SMILES | pest or weed control at 70 g/ha [%]
COC(=O)c1nc(-c2ccc(Cl)nc2OC)cc(N)c1Cl [Compound 48] | 0 to 29

Same assay, conditions: post-emergence, 336 h, ORYSS (crop), 140 g ai/ha, 14 days after application, read-out: Visual Growth Reduction (%) 14 Days After Application ORYSS

SMILES | pest or weed control at 140 g/ha [%]
COC(=O)c1nc(-c2ccc(Cl)nc2OC)cc(N)c1Cl [Compound 48] | 0 to 29

Same assay, conditions: post-emergence, 336 h, SETFA: giant foxtail (Setaria faberi), 70 g ai/ha, 14 days after application, read-out: Visual Growth Reduction (%) 14 Days After Application SETFA

SMILES | pest or weed control at 70 g/ha [%]
COC(=O)c1nc(-c2ccc(Cl)nc2OC)cc(N)c1Cl [Compound 48] | 0 to 29

Same assay, conditions: post-emergence, 336 h, SETFA: giant foxtail (Setaria faberi), 140 g ai/ha, 14 days after application, read-out: Visual Growth Reduction (%) 14 Days After Application SETFA

SMILES | pest or weed control at 140 g/ha [%]
COC(=O)c1nc(-c2ccc(Cl)nc2OC)cc(N)c1Cl [Compound 48] | 0 to 29

Same assay, conditions: post-emergence, 336 h, SORVU: grain sorghum (Sorghum vulgare), 70 g ai/ha, 14 days after application, read-out: Visual Growth Reduction (%) 14 Days After Application SORVU

SMILES | pest or weed control at 70 g/ha [%]
COC(=O)c1nc(-c2ccc(Cl)nc2OC)cc(N)c1Cl [Compound 48] | 0 to 29

Same assay, conditions: post-emergence, 336 h, SORVU: grain sorghum (Sorghum vulgare), 140 g ai/ha, 14 days after application, read-out: Visual Growth Reduction (%) 14 Days After Application SORVU

SMILES | pest or weed control at 140 g/ha [%]
COC(=O)c1nc(-c2ccc(Cl)nc2OC)cc(N)c1Cl [Compound 48] | 0 to 29

Same assay, conditions: post-emergence, 336 h, TRZSS (crop), 70 g ai/ha, 14 days after application, read-out: Visual Growth Reduction (%) 14 Days After Application TRZSS

SMILES | pest or weed control at 70 g/ha [%]
COC(=O)c1nc(-c2ccc(Cl)nc2OC)cc(N)c1Cl [Compound 48] | 0 to 29

Same assay, conditions: post-emergence, 336 h, TRZSS (crop), 140 g ai/ha, 14 days after application, read-out: Visual Growth Reduction (%) 14 Days After Application TRZSS

SMILES | pest or weed control at 140 g/ha [%]
COC(=O)c1nc(-c2ccc(Cl)nc2OC)cc(N)c1Cl [Compound 48] | 0 to 29

Same assay, conditions: post-emergence, 336 h, ZEAMX: maize, corn (Zea mays), 70 g ai/ha, 14 days after application, read-out: Visual Growth Reduction (%) 14 Days After Application ZEAMX

SMILES | pest or weed control at 70 g/ha [%]
COC(=O)c1nc(-c2ccc(Cl)nc2OC)cc(N)c1Cl [Compound 48] | 0 to 29

Same assay, conditions: post-emergence, 336 h, ZEAMX: maize, corn (Zea mays), 140 g ai/ha, 14 days after application, read-out: Visual Growth Reduction (%) 14 Days After Application ZEAMX

SMILES | pest or weed control at 140 g/ha [%]
COC(=O)c1nc(-c2ccc(Cl)nc2OC)cc(N)c1Cl [Compound 48] | 45 to 59

Tested on: not given
Experiment: not given
Details: not given

melting point [°C] | SMILES
109 to 111 | COC(=O)c1nc(-c2ccc(Cl)nc2OC)cc(N)c1Cl [Compound 48]
